Measured values from US20140170199A1, “PARASITICIDAL COMBINATION COMPRISING INDOXACARB AND DELTAMETHRIN” (priority 2011, published 2014).

What was measured:
[1] = system: voltage-dependent sodium channels expressed in DUM neurons; experiment: Whole-cell patch-clamp of voltage-dependent inward sodium current in isolated DUM neuron cell bodies; format: cell-based, cockroaches (Periplaneta Americana)
Description: Experiments were performed on dorsal unpaired median (DUM) neuron cell bodies (Grolleau and Lapied (2000), J. Exp. Biol., 203, 1633-1648) isolated from the dorsal midline of the terminal abdominal ganglion of adult male cockroaches (Periplaneta Americana) taken from a stock colony, maintained at 29° C. with a photoperiod of 12 hours light:12 hours dark.
Adult male cockroaches were immobilised dorsal-side up on a dissection dish. The dorsal cuticle, gut and some dorso-longitudinal muscles were removed, to allow access to the ventral nerve cord. The abdominal nerve cord and its terminal abdominal ganglion (TAG), carefully dissected under a binocular microscope, were placed in normal saline. Isolation of adult DUM neuron cell bodies was performed under sterile conditions using enzymatic digestion and mechanical dissociation of the median part of the TAG (Lapied et al. (1989), J. Exp. Biol., 144, 535-549).
Ganglia were excised and incubated for 35 min at 29° C. in cockroach saline supplemented with 1.5 mg/ml collagenase (type I, Worthington, Lakewood, N.J.). After thoroughly washing off the enzyme, ganglia were mechanically dissociated by gentle repeated suctions through fire-polished Pasteur pipettes. Then, the isolated DUM neuron cell bodies were maintained at 29° C. for 24 hours before experiments are carried out.
Isolated neuronal cell bodies were used for electrophysiological studies. […] A total number of six different isolated cell bodies (six replicates) were used for each experiment.
Deltamethrin and DCJW (IN-JT333), stock solutions (100 mM and 10 mM, respectively) were prepared in dimethylsulphoxide (DMSO, Sigma Chemical, France). Final dilutions contained a maximum of 0.1% DMSO.
Deltamethrin and DCJW, prepared in cockroach saline, were applied separately by a gravity perfusion system onto isolated cell body maintained in short-term culture.
Experiments were carried out at room temperature (20° C.).
The patch-clamp technique in the whole-cell recording configuration (voltage-clamp condition) was used to record voltage-dependent inward sodium current. […]
For each time point, relative sodium current amplitudes are expressed as means±standard errors of the mean (SEM) (table 2). […]
In addition to the concomitant application of deltamethrin and DCJW, the effect of the mixture DCJW (10^−7M) and deltamethrin (10^−5 M) on DUM neuron was assessed after a pre-treatment of the cell body by deltamethrin (10^−5 M) for 5 minutes. […]
As in Example 2, for each time point, relative sodium current amplitudes were expressed as means±standard errors of the mean (SEM). […]

[2] = system: Rhipicephalus sanguineus ticks; experiment: Tick control on dogs (experimental infestation, tick counts and efficacy); format: in vivo; design: Tick efficacies, arithmetic mean / Tick efficacies, geometric mean: concentration or dose not given beside the values
Description: The SCALIBOR® collar was administered to dogs according to the instructions in the Product leaflet. The topical formulation of indoxacarb was administered to dogs in Groups 3 and 4 according to the dose table below:
A 4% deltamethrin-impregnated collar (SCALIBOR®, Merck Animal Health) is used to protect dogs from the bites of sand flies (Phlebotomus sp.), mosquitoes (Culex sp.), and ticks for up to six months with high persistent efficacy. Immediate efficacy of the collar against fleas is known to be inadequate.
The study was conducted on four groups of eight dogs each. • Group 1: Negative control. • Group 2: Dogs were fitted with the Scalibor® collar on Day 0. • Group 3: Dogs were treated with a topical formulation of indoxacarb on Days 0, 30, 60, 90, 120, 150, and 180 (once a month for 6 months). • Group 4: Dogs were fitted with the Scalibor® collar (4% deltamethrin) on Day 0 and treated with a topical formulation of indoxacarb on Days 0, 30, 60, 90, 120, 150, and 180 (once a month for 6 months). Dogs were experimentally infested with 100 fleas and 50 ticks two days before treatment (Day 0) and then on various days throughout the study.
Efficacy against ticks and fleas was calculated for each treatment group at each assessment day according to the formulas given below. Due to the fact that small and even zero tick and flea counts were recorded, it was expected that the tick and flea counts would not follow a normal distribution. It was therefore decided that the primary efficacy calculations would be based on geometric means rather than arithmetic means. The calculations were based on the geometric means of the tick or flea (count+1) data. One (1) was subsequently subtracted from the result to obtain a meaningful value for the geometric mean of each treatment group. Efficacy calculations based on arithmetic means were, however, also reported on.
Percent efficacy against ticks was calculated as follows:
Efficacy(%)=100×(Gmc−Gmt)/Gmc, where:
Gmc=Geometric or arithmetic mean number of live ticks (categories 1-3) on dogs in the control group (Group 1) at a specific time point. Gmt=Geometric or arithmetic mean number of live ticks (categories 1-3; immediate Day+2 efficacy) and dead attached engorged ticks (category 6; residual >Day+2 efficacies) on dogs in the treatment groups (Groups 2, 3 & 4) at a specific time point.

[3] = Day +2 (immediate), vs negative control
[4] = Day +2, count ~48 h after treatment or infestation
[5] = Day +16, count ~48 h after infestation
[6] = Day +30, count ~48 h after infestation
[7] = Day +44, count ~48 h after infestation
[8] = Day +72, count ~48 h after infestation
[9] = Day +100, count ~48 h after infestation
[10] = Day +128, count ~48 h after infestation
[11] = Day +156, count ~48 h after infestation
[12] = Day +170, count ~48 h after infestation
[13] = Day +184, count ~48 h after infestation
[14] = DCJW 10^-7 M alone, after 20 minutes

Q: Which results are given for `N#Cc1ccc(CC(=NNC(=O)Nc2ccc(OC(F)(F)F)cc2)c2cccc(C(F)(F)F)c2)cc1` (mixture of isomers) [metaflumizone E/Z, (EZ)-2012-(4-cyanophenyl)-1-(a,a,a-trifluoro-mtolypethylidene]-4 (trifluoromethoxy) carbanilohydrazide]?
A: Effect on the sodium current amplitude ([1]; bath application at different concentrations (10^-10 to 10^-5 M), alone): produced a reduction of the sodium current amplitude; Dose dependence of the reduction of sodium current amplitude ([1]; different concentrations (10^-10 to 10^-5 M), alone): not dose-dependent

Q: Which “Tick efficacies, arithmetic mean” value [2, 3] does the source give for `COC(=O)N(C(=O)N1CO[C@@]2(C(=O)OC)Cc3cc(Cl)ccc3C2=N1)c1ccc(OC(F)(F)F)cc1` [indoxacarb, (5)-methyl 7-chloro-2,5-dihydro-2-[[(methoxycarbonyl) [4-(trifluoromethoxy)phenyl]amino]carbonyl]indeno[1,2-e][1,3,4]oxadiazine-4a(3H)-carboxylate] here?
A: Its value is 13.3%.

Q: And the “Tick efficacies, geometric mean” value [2, 3]?
A: The value was 15.5%.

Q: What about the “Tick counts, arithmetic mean” value [2, 4] of the same compound?
A: Its value is 18.8.

Q: What about the “Tick counts, geometric mean” value [2, 4] of the same compound?
A: The value was 18.1^4.

Q: What about the “Immediate or persistent effectiveness against R. sanguineus ticks” value ([2]; Day +2 to Day 184) of the same compound?
A: Its value is “No immediate or persistent effectiveness”.

Q: And the “Tick counts, arithmetic mean” value [2, 5]?
A: Its value is 13.8.

Q: What about the “Tick counts, geometric mean” value [2, 5] of the same compound?
A: Its value is 12.1^4.

Q: And the “Tick efficacies, arithmetic mean” value ([2]; Day +16, vs negative control)?
A: The value was 34.3%.

Q: What about the “Tick efficacies, geometric mean” value ([2]; Day +16, vs negative control) of the same compound?
A: The value was 37.4%.

Q: What about the “Tick counts, arithmetic mean” value [2, 6] of the same compound?
A: The value was 14.0.

Q: And the “Tick counts, geometric mean” value [2, 6]?
A: The value was 9.8^2,4.

Q: And the “Tick efficacies, arithmetic mean” value ([2]; Day +30, vs negative control)?
A: The value was 42.0%.

Q: And the “Tick efficacies, geometric mean” value ([2]; Day +30, vs negative control)?
A: Its value is 58.7%.

Q: And the “Tick counts, arithmetic mean” value [2, 7]?
A: Its value is 18.4.

Q: What about the “Tick counts, geometric mean” value [2, 7] of the same compound?
A: The value was 18.0^4.

Q: And the “Tick efficacies, arithmetic mean” value ([2]; Day +44, vs negative control)?
A: Its value is 25.0%.

Q: And the “Tick efficacies, geometric mean” value ([2]; Day +44, vs negative control)?
A: Its value is 25.8%.

Q: And the “Tick counts, arithmetic mean” value [2, 8]?
A: The value was 24.5.

Q: And the “Tick counts, geometric mean” value [2, 8]?
A: Its value is 23.5^4.

Q: What about the “Tick efficacies, arithmetic mean” value ([2]; Day +72, vs negative control) of the same compound?
A: The value was 20.0%.

Q: What about the “Tick efficacies, geometric mean” value ([2]; Day +72, vs negative control) of the same compound?
A: The value was 20.9%.

Q: And the “Tick counts, arithmetic mean” value [2, 9]?
A: The value was 18.3.

Q: And the “Tick counts, geometric mean” value [2, 9]?
A: The value was 16.0^4.

Q: And the “Tick efficacies, arithmetic mean” value ([2]; Day +100, vs negative control)?
A: Its value is 35.4%.

Q: What about the “Tick efficacies, geometric mean” value ([2]; Day +100, vs negative control) of the same compound?
A: Its value is 40.9%.

Q: What about the “Tick counts, arithmetic mean” value [2, 10] of the same compound?
A: The value was 24.5.

Q: What about the “Tick counts, geometric mean” value [2, 10] of the same compound?
A: Its value is 22.6^4.

Q: What about the “Tick efficacies, arithmetic mean” value ([2]; Day +128, vs negative control) of the same compound?
A: The value was 12.1%.

Q: And the “Tick efficacies, geometric mean” value ([2]; Day +128, vs negative control)?
A: Its value is 16.0%.

Q: And the “Tick counts, arithmetic mean” value [2, 11]?
A: The value was 25.4.

Q: And the “Tick counts, geometric mean” value [2, 11]?
A: Its value is 25.0^4.

Q: What about the “Tick efficacies, arithmetic mean” value ([2]; Day +156, vs negative control) of the same compound?
A: Its value is 12.1%.

Q: What about the “Tick efficacies, geometric mean” value ([2]; Day +156, vs negative control) of the same compound?
A: The value was 12.2%.

Q: And the “Tick counts, arithmetic mean” value [2, 12]?
A: Its value is 21.1.

Q: And the “Tick counts, geometric mean” value [2, 12]?
A: Its value is 19.9^4.

Q: And the “Tick efficacies, arithmetic mean” value ([2]; Day +170, vs negative control)?
A: The value was 18.4%.

Q: What about the “Tick efficacies, geometric mean” value ([2]; Day +170, vs negative control) of the same compound?
A: The value was 20.0%.

Q: And the “Tick counts, arithmetic mean” value [2, 13]?
A: The value was 18.3.

Q: What about the “Tick counts, geometric mean” value [2, 13] of the same compound?
A: Its value is 17.1^4.

Q: And the “Tick efficacies, arithmetic mean” value ([2]; Day +184, vs negative control)?
A: Its value is 25.1%.

Q: What about the “Tick efficacies, geometric mean” value ([2]; Day +184, vs negative control) of the same compound?
A: The value was 28.3%.

Q: Which “Tick efficacies, geometric mean” value [2, 3] does the source give for `CC1(C)[C@H](C(=O)O[C@H](C#N)c2cccc(Oc3ccccc3)c2)[C@@H]1C=C(Br)Br` [deltamethrin, (S)-α-Cyano-3-phenoxybenzyl-(1R,3R)-3-(2,2-dibromovinyl)-2,2-dimethylcyclopropanecarboxylate] here?
A: The value was 76.9%.

Q: With `COC(=O)C12Cc3cc(Cl)ccc3C1=NN(C(=O)Nc1ccc(OC(F)(F)F)cc1)CO2` (stereo not shown) [DCJW, methyl 7-chloro-2,5-dihydro-2-[[[4-(trifluoromethoxy)phenyl]amino]carbonyl]indeno-[1,2-e][1,3,4]oxadiazine-4a(3H)-carboxylate] as the compound, how does the “Percentage of inhibition of the sodium current amplitude” value [1, 14] read?
A: Its value is 40.7%.

Q: And the “Sodium current amplitude (relative to control current 100%)” value [1, 14]?
A: The value was 59.3%.
